Earlier results as cited in patent US20110053889A1, “Prenatal and postnatal screening and treatment of critical monosaccharide deficiencies for neurologic and immunologic function” (priority 2008, published 2011).
Where two headings read alike, the source gives them in different places.

Key:
[1] = for Estimated Safe Daily Dose (mg) in 68 kg human: 68 kg human (Gardiner, 2004); for Estimated Safe Daily Dose: based on ADME and safety data and margin-of-safety (Gardiner, 2004)
[2] = oral single doses (Alton et al., 1997)
[3] = oral 0.07-0.21 g/kg body weight, humans (Alton et al., 1997)
[4] = test system: E. coli; conditions: injected, rats (Michaels et al., 1983)
[5] = test system: E. coli; conditions: topical solution applied to maternal vaginas prior to delivery; control 77% (Cox and Taylor, 1990)
[6] = rats
[7] = oral 50-100 mg/kg body weight, healthy volunteers (Marquardt et al., 1999)
[8] = patient with LAD II (Marquardt et al., 1999)
[9] = ingested (Martin et al., 1998)
[10] = radiolabeled injection (Martin et al., 1998)
[11] = oral 1 gram, humans (Talent and Gracy, 1996)

O=C[C@H](O)[C@@H](O)[C@H](O)[C@H](O)CO [Glucose, D-glucose]
Estimated Safe Daily Dose (mg) in 68 kg human [1]: 150,000 mg
Estimated Safe Daily Dose [1]: 2,200 mg/kg/d

O=C[C@@H](O)[C@@H](O)[C@H](O)[C@H](O)CO [Mannose, mannose]
single dose that induces osmotic diarrhea [2]: > 200 mg/kg body wt
clearance half-time [3]: about 4 hours
time to peak blood mannose concentration [3]: approximately 90 minutes
time to reduction of E. coli bacteriuria [4]: ≤ 1 days
E. coli bacteremia in newborns [5]: 25%
increase of glycoprotein incorporation in organs ([6]; at 1-8 hours): 2- to 6 fold
time to absorption into the serum ([6]; oral, radiolabeled): ≤ 1 h
Estimated Safe Daily Dose (mg) in 68 kg human [1]: 53,000 mg
Estimated Safe Daily Dose [1]: 779 mg/kg/day

CC(=O)N[C@H]1[C@H]([C@H](O)[C@H](O)CO)OC(O)(C(=O)O)C[C@@H]1O (stereo partly shown) [Sialic Acid, N-acetylneuraminic acid]
Estimated Safe Daily Dose (mg) in 68 kg human [1]: 140 mg
Estimated Safe Daily Dose [1]: 2 mg/kg/day

C[C@H](O)[C@@H](O)[C@@H](O)[C@H](O)C=O [Fucose, L-fucose]
clearance half-time [7]: 100 min
time to peak serum fucose concentration [7]: 1 h
clinical outcome of oral supplementation [8]: clinical disappearance of infections and fever
Estimated Safe Daily Dose (mg) in 68 kg human [1]: 34,000 mg
Estimated Safe Daily Dose [1]: 500 mg/kg/day

N[C@H]1C(O)O[C@H](CO)[C@@H](O)[C@@H]1O (stereo partly shown) [Glucosamine, glucosamine]
fraction of the dose oxidized [9]: about one-half
protein-bound radioactivity in the form of sialic acid [10]: 25-30%

O=C[C@H](O)[C@@H](O)[C@@H](O)[C@H](O)CO [Galactose, D-galactose]
Estimated Safe Daily Dose (mg) in 68 kg human [1]: 50,000 mg
Estimated Safe Daily Dose [1]: 735 mg/kg/day

CC(=O)N[C@H]1C(O)O[C@H](CO)[C@@H](O)[C@@H]1O (stereo partly shown) [N-acetylglucosamine]
time to significant rise in serum levels of GlcNAc [11]: ≤ 1 h
Estimated Safe Daily Dose (mg) in 68 kg human [1]: 1,000 mg
Estimated Safe Daily Dose [1]: 15 mg/kg/day
